Where two headings read alike, the source gives them in different places.
Experiments:
Platelets = conditions: 72 h treatment
peripheral blood cells = conditions: Mean ± SD, 40 mg/kgbw
Text: (§1) The experimental animals—Rattus norvegicus (Wistar strain; 8–10 weeks old; 120 ± 20 gm; males only) were acquired from Indian Institute of Integrative Medicine (IIIM-CSIR) (Jammu, India), quarantined, acclimatized and sacrificed as per standard practice conforming to the University Ethical Regulations. After acclimatization, rats were divided into five groups by stratified randomization with five animals per group. […] Distilled water was used to prepare dosing solutions of test agent and injected via intraperitoneal (i.p.) injection. At 24, 48 and 72 h post-dosing, 5 rats per duration were sacrificed and necessary tissues were isolated for different cytogenetic and molecular parameters. For CA assessment, separate experimental lot was used due to colchicine treatment.
Detection of DNA strand break was performed according to protocol of Singh et al. with some modifications. Briefly, blood was collected using Retro-orbital bleeding during euthanasia. 10μL whole blood cells obtained were mixed with 75 µL of 0.5% LMPA and layered onto frosted slides which was pre-coated with NMA. After putting cover slip, slides were kept for 5–10min. After gelling, removed cover slip gently and added a layer of 90 μL of LMPA. After replacing the cover slip, slides were placed on the slide tray (ice packs) till the agarose layer hardened (5–10 min). Following this, removed the cover slip and by gently immersing the slides in lysis buffer embedded cells were lysed. Cells lysis was performed in cold conditions for a minimum of 2 h in lysing solution.
Alkaline conditions (pH > 13) were used to perform the electrophoresis. After lysis, slides were subjected in electrophoretic buffer at 4 °C for 40 min to achieve the DNA denaturation that allow the DNA unwinding and the expression of alkali labile site. Electrophoresis was then carried out at 0.74 V/cm for 40 min (300 mA; 24 volts) at 4 °C by raising or lowering buffer. Thereafter, neutralization buffer (0.4 M Tris, 10 M HCl; pH = 7.5) were employed to wash the slides. Slides were stained by 80 μL of 1× Ethidium Bromide and excess stain was removed by dipping in chilled distilled water. Slides were examined at 40× magnification under fluorescence microscope coupled with a charge coupled device camera (Olympus).

bone marrow cells = conditions: 40 mg/kgbw; for Total Aberrations (Mean ± SD): mean percentage; for MI (Mean ± SD): mitotic index mean percentage; for Structural Aberrations Assoc: number of associations; for Structural Aberrations Brk: number of breaks; for Structural Aberrations Del: number of deletions; for Structural Aberrations Dcn: number of dicentrics; for Structural Aberrations Frag: number of fragments; for Structural Aberrations Gp: number of gaps; for Structural Aberrations Ring: number of rings
Text: as §1
Method of Preston et al. was used for preparing the metaphase chromosomes. An aqueous solution of Colchicine (4 mg/kgbw) was injected intraperitoneally 2 h prior to sacrificing the animal. Pre-warm KCL (0.075 M) solution was used to collect the bone marrow cells followed by incubation at 37 °C for 20 min, and then centrifuge at 1000 rpm for 10 min. After fixing the pellet in cold Cornoy’s fixative dropped onto clean pre-chilled glass slide in 30% ethanol and dried in air. 5% buffered Giemsa (pH 7.0) was used for staining. Chromosomal aberrations were analyzed on properly separated metaphases and finally photographed at 100× (Olympus U—PMTV microscope), using oil immersion. The metaphase cells from approximately 1000 cells per concentration per animal both in exposed and control replicates, expressed in percentage were considered for mitotic indices (MI).

Neutrophils = tested on: Neutrophils
Text: as §1
(§2) WBCs were isolated by following the protocol of Lone et al.. Blood was collected in 0.1% EDTA from retro-orbital plexus of rat, followed by incubation for 30 min. 500 µL of blood was then added to a centrifuge tube with 1 mL FACS lysing solution. The blood was incubated for 10 min and centrifuged (2000 rpm, 10 min) at 25 °C. After discarding the supernatant, pellet was washed in 1mL FACS lysing solution followed by centrifuging at 2000 rpm for 5 min. Repeated this step twice and then pellet was put in 500 µL of PBS, leaving only WBCs.
(§3) Protocol of Majeed and colleagues was employed for flow cytometric measurements of change in Ψm. […] Leukocytes were identified via forward and side scatter.

Eosinophils = conditions: 72 h treatment
Text: as §1, §2, §3

Q: What does the source list for `O=P1(N(CCCl)CCCl)NCCCO1` (stereo not shown) [Cyclophosphamide, reference compound]?
A: MMP loss (membrane potential loss) (Platelets): 81.1%; Olive Tail Moment (peripheral blood cells; 24 h): 12.52 ± 0.81 ***^,a; Tail Length (µm) (peripheral blood cells; 24 h): 51.01 ± 3.71 ***^,a µm; Olive Tail Moment (peripheral blood cells; 48 h): 11.28 ± 0.84 ***^,a; Tail Length (µm) (peripheral blood cells; 48 h): 40.91 ± 2.86 ***^,a µm; Olive Tail Moment (peripheral blood cells; 72 h): 8.23 ± 0.73 ***^,a; Tail Length (µm) (peripheral blood cells; 72 h): 38.51 ± 1.05 ***^,a µm; Total Aberrations (Mean ± SD) (bone marrow cells; 24 h): 17.50 ± 3.33 ***^,a %; Total Aberrations (Mean ± SD) (bone marrow cells; 48 h): 13.66 ± 2.56 ***^,a %; Total Aberrations (Mean ± SD) (bone marrow cells; 72 h): 10.66 ± 2.61 ***^,a %; MI (Mean ± SD) (bone marrow cells; 24 h): 1.52 ± 0.05 **^,a %; MI (Mean ± SD) (bone marrow cells; 48 h): 1.56 ± 0.05 **^,a %; MI (Mean ± SD) (bone marrow cells; 72 h): 1.63 ± 0.03 **^,a %; Structural Aberrations Assoc (bone marrow cells; 24 h): 9; Structural Aberrations Assoc (bone marrow cells; 48 h): 7; Structural Aberrations Assoc (bone marrow cells; 72 h): 4; Structural Aberrations Brk (bone marrow cells; 24 h): 14; Structural Aberrations Brk (bone marrow cells; 48 h): 12; Structural Aberrations Brk (bone marrow cells; 72 h): 9; Structural Aberrations Del (bone marrow cells; 24 h): 23; Structural Aberrations Del (bone marrow cells; 48 h): 18; Structural Aberrations Del (bone marrow cells; 72 h): 15; Structural Aberrations Dcn (bone marrow cells; 24 h): 25; Structural Aberrations Dcn (bone marrow cells; 48 h): 18; Structural Aberrations Dcn (bone marrow cells; 72 h): 14; Structural Aberrations Frag (bone marrow cells; 24 h): 26; Structural Aberrations Frag (bone marrow cells; 48 h): 21; Structural Aberrations Frag (bone marrow cells; 72 h): 19; Structural Aberrations Gp (bone marrow cells; 24 h): 20; Structural Aberrations Gp (bone marrow cells; 48 h): 16; Structural Aberrations Gp (bone marrow cells; 72 h): 13; Structural Aberrations Ring (bone marrow cells; 24 h): 8; Structural Aberrations Ring (bone marrow cells; 48 h): 6; Structural Aberrations Ring (bone marrow cells; 72 h): 3; P9: percentage of reduced mitochondrial membrane potential (MMP loss) (Neutrophils; Figure 7, one experiment, Positive Control): 10.9%; MMP loss (membrane potential loss) (Neutrophils; neutrophils, 72 h treatment): 93.2%; MMP loss (membrane potential loss) (Eosinophils): 54%

Reference: publication PMC7712428, “Dimethoate Induces DNA Damage and Mitochondrial Dysfunction Triggering Apoptosis in Rat Bone-Marrow and Peripheral Blood Cells” (Toxics, 2020)
